Experiments:
MRSA USA300 = assay: Kirby-Bauer assay, inner and outer surfaces of bisected coated catheters; assay type: cell-based; details: Staphylococcus aureus, read-out: average zone of inhibition diameter
Excerpt: To evaluate the auranofin release, the inventors used a Kirby Bauer assay to visualize the bacterial inhibition and determine if the catheter released the auranofin into the surrounding media. Coated catheters were split through the circumference of the material to expose both the inner and outer surfaces. […] The inventors then placed these catheter pieces were then placed on a bacteria-seeded agar plate with the respective surfaces face down.
Antibacterial and antibiofilm activity of PU+auranofin catheter coatings was examined against MRSA USA300, a community-associated MRSA strain. Kirby-Bauer and broth bacteria survival assays on the coated catheters and their release solutions were conducted, respectively. For the Kirby-Bauer assay, MRSA USA300 in the exponential growth phase at a concentration of 10^8 CFU/mL was spread on tryptic soy agar plates. PU+auranofin-coated and PU+auranofin-uncoated catheters were cut in half lengthwise using a scalpel. Both the inner and outer surfaces of the catheters were placed in direct contact with the bacteria seeded agar and incubated for twenty-four hours at 37° C. These plates were then photographed using a Canon PowerShot S110 digital camera (Tokyo, Japan).

[1] = system: Staphylococcus aureus strain MRSA USA300; assay: Microdilution assay, minimum inhibitory concentration of non-coating incorporated auranofin; assay type: cell-based; details: TSBG, ~18 hours
Protocol: Auranofin release from PU+auranofin-coated catheters was monitored by incubating each coated catheter in 1.98 mL of tryptic soy broth supplemented with 0.25% glucose (TSBG) at 37° C. with shaking at 110 rpm. […] Heilmann et al., Infect. Immun., 64, 277-82 (1996); Lim et al., J. Bacteriol., 186, 722-729 (2004). Every twenty-four hours, the release solutions were collected and completely replaced with fresh medium. A microdilution assay, as described by Shukla & Shukla, J. Mater. Chem. B, 6, 6444-6458 (2018), was used to determine the amount of auranofin contained in the media release samples by comparing the antibacterial activity to that of known concentrations of non-coating incorporated auranofin. […] Staphylococcus aureus strain MRSA USA300 (10 μL) at a final concentration of 10^5 CFU/mL in the exponential growth phase (as determined by optical density) was added to these wells. […] Subsequently, the optical density (OD) of the samples was read at 600-nm using a Cytation3 microplate reader (BioTek, Winooski, VT, USA). The normalized bacteria density was calculated using Equation (1).
The minimum inhibitory concentration of the auranofin control against USA300 was determined as the concentration range of auranofin needed to observe a statistically significant transition of normalized bacteria density from […]. […]

[2] = system: preformed Staphylococcus aureus biofilms; details: within two hours of exposure; Torres et al. 2016; cited from earlier work
[3] = oral antirheumatic therapy; Egsmose et al. 1995; cited from earlier work
[4] = system: Gram-positive pathogenic bacteria, including Mycobacterium tuberculosis, Bacillus subtilis, Enterococcus faecalis, Enterococcus faecium, Staphylococcus aureus; details: Hassanein et al. 2017; cited from earlier work

Structure (SMILES)	zone of inhibition at 30 µg/disc (MRSA USA300) [mm]	minimum inhibitory concentration against USA300 [1] [µg/mL]	effect on preformed Staphylococcus aureus biofilms [2]	cumulative toxicity during long-term treatments [3]	minimum inhibitory concentration (MIC) against these bacteria [4] [µg/mL]
CN[C@H](CC(C)C)C(=O)N[C@H]1C(=O)N[C@@H](CC(N)=O)C(=O)N[C@H]2C(=O)N[C@H]3C(=O)N[C@H](C(=O)N[C@H](C(=O)O)c4cc(O)cc(O)c4-c4cc3ccc4O)[C@H](O)c3ccc(c(Cl)c3)Oc3cc2cc(c3O[C@@H]2O[C@H](CO)[C@@H](O)[C@H](O)[C@H]2O[C@H]2C[C@](C)(N)[C@H](O)[C@H](C)O2)Oc2ccc(cc2Cl)[C@H]1O [vancomycin]	14.8 ± 2	–	–	–	–
CC(=O)OCC1OC([S-])C(OC(C)=O)C(OC(C)=O)C1OC(C)=O.CCP(CC)CC.[Au+] (centres unmarked) [auranofin, Gold(+1) cation; 3,4,5-triacetyloxy-6-(acetyloxymethyl) oxane-2-thiolate; triethylphosphanium]	–	0.063	inhibit preformed Staphylococcus aureus biofilms	no cumulative toxicity	≥ 0.25

Source: patent US11931482B2 (priority 2019, dated 2024)
